Assay results taken from ChEMBL document CHEMBL5726851, “2-oxo-imidazopyridines as reversible BTK inhibitors and uses thereof” (2019).

Biological target: Tyrosine-protein kinase BTK (Homo sapiens, UniProt Q06187)
Assay: Microfluidic Off-Chip Mobility Shift Assay Protocol for Potency Assessment Against BTK Enzyme: Briefly, 2.5× stocks of full-length human BTK (08-080) from CarnaBio USA, Inc., Natick, Mass., 1.6×ATP and appropriate kinKDR peptide substrate (FITC-AHA-[…]-NH2; developed in-house) were prepared in kinase reaction buffer consisting of 25 mM MgCl2, 0.015% Brij-35 (30%), 100 mM HEPES, pH 7.5, and 10 mM DTT. 5 uL of enzyme buffer and 7.5 uL of ATP/kinKDR peptide substrate mix were added to Matrix (#115304) 384-well, sterile, polypropylene plates (Thermo Fisher Scientific, Hudson, N.H.) with 125 nL of serially diluted compounds prepared in 100% DMSO, and incubated for 90 min. at 27° C. Following the incubation period, reactions were stopped by adding 60 uL stop buffer consisting of 100 mM HEPES, pH 7.5, 0.015% Brij-35 (30%), 0.277% Coating Reagent #3 (Caliper Life Sciences, Mountain View, Calif.), 5% DMSO. Stopped reactions were monitored at −2 PSI, −3000 V/−700 V in a LabChip 3000 plate reader from Caliper Life Sciences, a PerkinElmer Company (Hopkinton, Mass.), and the activity was measured by off-chip mobility shift assay measuring the charge/mass difference between substrate and product resulting from peptide phosphorilation. IC50 and efficacy were determined by plotting log [Inhibitor] vs. % Activity in GeneData Screener (Basel, Switzerland).

Sequence of Tyrosine-protein kinase BTK (Q06187 whole entry): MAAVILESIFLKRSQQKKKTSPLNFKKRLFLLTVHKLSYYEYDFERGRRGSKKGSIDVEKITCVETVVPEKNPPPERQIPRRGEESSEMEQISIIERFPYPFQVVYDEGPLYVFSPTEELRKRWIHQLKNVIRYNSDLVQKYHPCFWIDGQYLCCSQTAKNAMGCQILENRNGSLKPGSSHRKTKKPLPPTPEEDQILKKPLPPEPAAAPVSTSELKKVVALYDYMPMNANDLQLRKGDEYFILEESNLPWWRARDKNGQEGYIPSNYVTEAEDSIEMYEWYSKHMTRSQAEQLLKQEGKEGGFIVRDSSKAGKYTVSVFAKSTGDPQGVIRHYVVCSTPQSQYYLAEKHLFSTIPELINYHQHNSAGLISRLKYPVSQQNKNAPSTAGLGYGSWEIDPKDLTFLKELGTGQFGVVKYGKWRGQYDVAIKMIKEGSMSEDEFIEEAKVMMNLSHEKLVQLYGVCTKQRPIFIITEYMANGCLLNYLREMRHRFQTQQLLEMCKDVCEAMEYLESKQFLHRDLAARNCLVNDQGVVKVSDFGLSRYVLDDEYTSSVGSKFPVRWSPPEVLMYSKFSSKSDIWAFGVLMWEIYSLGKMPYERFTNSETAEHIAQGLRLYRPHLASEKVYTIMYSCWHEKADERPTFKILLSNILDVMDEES

IC50: < 0.01 µM
Structure (SMILES): CC(C)(C)c1cc(C(=O)NC2CCCCc3cc(-c4ccnc5[nH]c(=O)[nH]c45)ccc32)on1 (stereo unspecified)
